Each block holds one compound with its values, some of them ahead of it.
Legend:
[1] = system: A. muciniphila strain (MDA-JAX AM001); assay: Growth of A. muciniphila in BYEM10+ mucin medium (OD600 nm up to 48 hrs); assay type: cell-based, Akkermansia muciniphila
Description: SCFAs were added in 10 and 20 mM final concentration to bacterial culture. Growth of the bacteria at 37° C. in BYEM10+ mucin medium was read at OD600 nm continuously up to 48 hrs. Control Akkermansia culture was grown in absence of compounds.
Using a high-throughput screening strategy analyzing ˜1800 compounds, various other natural compounds in addition to SCFAs were identified for their potential to delay and/or suppress growth of MDA-JAX AM001. […] Growth of the bacteria at 37° C. in BYEM10+ mucin medium was read at OD600 nm continuously up to 48 hrs. Control Akkermansia culture was grown in absence of compounds.
Several active ruminal metabolites were also tested for their ability to delay and/or suppress growth of MDA-JAX AM001. Compounds were selected based on initial testing of Akkermansia growth in medium containing 1× to 3× concentrated ruminal fluid, followed by analysis of metabolite content by MALDI-TOF mass-spectrometry. Ruminal metabolite compounds tested included Malic acid (2 mM and 5.6 mM), 3-Indole acetic acid (5.6 mM and 8.6 mM), Hydrocinnamic acid (2.66 mM and 3.99 mM), Methylmalonic acid (8.4 mM and 10.6 mM), Glucoranic acid (16.8 mM), Galacturonic acid (14 mM), and Bis-hydroxy methyl propionic acid (22 mM). These ruminal metabolite compounds have also been found in human stool, as analyzed by MALDI-TOF mass spectrometry. […] Growth of the bacteria at 37° C. in BYEM10+ mucin medium was read at OD600 nm continuously up to 48 hrs. Control Akkermansia culture was grown in absence of compounds.

Akkermansia = assay: Dietary restriction in mice with narrow-spectrum antibiotics in the drinking water; assay type: in vivo; conditions: antibiotic in drinking water from 5 days prior to dietary restriction
Source text: Diet is a major determinant of intestinal microbiome composition, and the indirect impact of RT on microbiome composition due to a reduction in intake of food in mice was investigated. Mice were individually housed in metabolic cages following RT to quantify effects of RT on food and water intake. Within 2 days following RT, mice had reduced their oral intake to approximately 2 grams a day, or a 50% reduction (FIG. 3A). To evaluate whether dietary restriction (DR) could impact intestinal microbiome composition and the colonic mucus layer, normal, un-irradiated mice were limited 2 grams of chow per mouse per day for 7 days.
Because commercially-available mice lacking Akkermansia are not easy to find (12), narrow-spectrum antibiotics were used to evaluate the specific contribution of Akkermansia to mucus thinning during DR.

[2] = human, in vivo
Description: In this study, data from 295 patients with acute myeloid leukemia (AML) or myelodysplastic syndrome (MDS) who underwent allo-HSCT with tacrolimus and methotrexate as GVHD prophylaxis following conditioning therapy with fludarabine and 5 busulfan from 2011 to 2016 were retrospectively examined. The incidence of acute intestinal GVHD until day 100 after transplant was evaluated and compared were patients who received neither cefepime nor meropenem, those who received cefepime alone, those who received meropenem alone, and those who received both cefepime and meropenem during the period from days −10 to 30 relative to allo-HSCT infusion.
Retrospective study design. 295 patients with acute myeloid leukemia (AML) or myelodysplastic syndrome (MDS) underwent allogeneic hematopoietic stem cell transplantation (allo-HSCT) with fludarabine plus busulfan as conditioning therapy and tacrolimus and methotrexate as GVHD prophylaxis from 2011 and 2016 and were analyzed retrospectively. Patients were classified by antibiotic exposures, including those who received neither cefepime nor meropenem, those who received cefepime alone, those who received meropenem alone and those who received both cefepime and meropenem from day −10 to day 30 after allo-HSCT. Acute GVHD was diagnosed by clinical and/or pathological findings, and graded according to standard criteria (56).

[3] = Brucine 2.5 and 5 mM, Methyl-β-D-galactopyranoside 14 mM, Resacetophenone 3.3 and 5 mM, Serotonin 4.7 and 7.1 mM
[4] = Malic acid 2 and 5.6 mM, 3-Indole acetic acid 5.6 and 8.6 mM, Hydrocinnamic acid 2.66 and 3.99 mM, Methylmalonic acid 8.4 and 10.6 mM, Glucoranic acid 16.8 mM, Galacturonic acid 14 mM, Bis-hydroxy methyl propionic acid 22 mM
[5] = 10 mM and 20 mM, vs mucin-only control, 37° C.

SMILES: CO[C@@H]1O[C@H](CO)[C@H](O)[C@H](O)[C@H]1O [Methyl-β-D-galactopyranoside]
growth of MDA-JAX AM001 [1, 3]: delay and suppress the growth of MDA-JAX AM001

SMILES: O=C[C@H](O)[C@@H](O)[C@@H](O)[C@H](O)C(=O)O [Galacturonic acid]
growth of MDA-JAX AM001 [1, 4]: delay and inhibit MDA-JAX AM001 growth

SMILES: CC(CO)(CO)C(=O)O [Bis-hydroxy methyl propionic acid]
growth of MDA-JAX AM001 [1, 4]: delay and inhibit MDA-JAX AM001 growth

SMILES: O=C(O)CC(O)C(=O)O (stereo not drawn) [Malic acid]
growth of MDA-JAX AM001 [1, 4]: delay and inhibit MDA-JAX AM001 growth

SMILES: NCCc1c[nH]c2ccc(O)cc12 [Serotonin]
growth of MDA-JAX AM001 [1, 3]: delay and suppress the growth of MDA-JAX AM001

SMILES: CC(=O)c1ccc(O)cc1O [Resacetophenone]
growth of MDA-JAX AM001 [1, 3]: delay and suppress the growth of MDA-JAX AM001

SMILES: [H]/N=C(/N)N[C@H]1[C@H](O)[C@@H](O)[C@H](O[C@@H]2O[C@@H](C)[C@](O)(C=O)[C@H]2O[C@@H]2O[C@@H](CO)[C@H](O)[C@@H](O)[C@@H]2NC)[C@@H](N/C(N)=N\[H])[C@@H]1O [streptomycin]
bacterial populations depleted (Akkermansia): depleted certain gram-positive bacteria
colonic mucus layer thinning during dietary restriction (Akkermansia): Neither streptomycin nor vancomycin had a significant effect on mucus barrier loss

SMILES: CN[C@H](CC(C)C)C(=O)N[C@H]1C(=O)N[C@@H](CC(N)=O)C(=O)N[C@H]2C(=O)N[C@H]3C(=O)N[C@H](C(=O)N[C@H](C(=O)O)c4cc(O)cc(O)c4-c4cc3ccc4O)[C@H](O)c3ccc(c(Cl)c3)Oc3cc2cc(c3O[C@@H]2O[C@H](CO)[C@@H](O)[C@H](O)[C@H]2O[C@H]2C[C@](C)(N)[C@H](O)[C@H](C)O2)Oc2ccc(cc2Cl)[C@H]1O [vancomycin]
bacterial populations depleted (Akkermansia): depleted both gram-positive bacteria and some Bacteroidetes
colonic mucus layer thinning during dietary restriction (Akkermansia): Neither streptomycin nor vancomycin had a significant effect on mucus barrier loss

SMILES: O=C(O)CCc1ccccc1 [Hydrocinnamic acid]
growth of MDA-JAX AM001 [1, 4]: delay and inhibit MDA-JAX AM001 growth

SMILES: COc1cc2c(cc1OC)[C@@]13CCN4CC5=CCO[C@H]6CC(=O)N2[C@H]1[C@H]6[C@H]5C[C@H]43 [Brucine]
growth of MDA-JAX AM001 [1, 3]: delay and suppress the growth of MDA-JAX AM001

Acute GVHD Grade 0, number of patients [2]: 57
Acute GVHD Grade 0, percentage of patients [2]: (46%)
Acute GVHD Grade I, number of patients [2]: 26
Acute GVHD Grade I, percentage of patients [2]: (21%)
Acute GVHD Grade II, number of patients [2]: 34
Acute GVHD Grade II, percentage of patients [2]: (27%)
Acute GVHD Grade III-IV, number of patients ([2]; iv): 7
Acute GVHD Grade III-IV, percentage of patients ([2]; iv): (6%)
SMILES: CO/N=C(\C(=O)N[C@@H]1C(=O)N2C(C(=O)[O-])=C(C[N+]3(C)CCCC3)CS[C@H]12)c1csc(N)n1 [cefepime]

SMILES: CC(C)CC(=O)O [isovalerate]
growth of MDA-JAX AM001 [1, 5]: suppress and/or delay MDA-JAX AM001 growth

SMILES: CCCCC(=O)O [valerate]
growth of MDA-JAX AM001 [1, 5]: suppress and/or delay MDA-JAX AM001 growth

SMILES: O=C(O)Cc1c[nH]c2ccccc12 [3-Indole acetic acid]
growth of MDA-JAX AM001 [1, 4]: delay and inhibit MDA-JAX AM001 growth

SMILES: CC(C(=O)O)C(=O)O [Methylmalonic acid]
growth of MDA-JAX AM001 [1, 4]: delay and inhibit MDA-JAX AM001 growth

From patent US20240216410A1, “METHODS AND COMPOSITIONS FOR TREATING CANCER THERAPY-INDUCED NEUTROPENIC FEVER AND/OR GVHD” (BOARD OF REGENTS, THE UNIVERSITY OF TEXAS SYSTEM, priority 2021, published 2024)
